Measured values reported in article PMC10878032 (Molecular cancer therapeutics, 2023).
Where a SMILES comes first, the peptide text is derived from it. The star is where a group is joined. Cbz = O=C(OCc1ccccc1)*

What was measured:
[1] = test system: MCF-7 breast cancer cells; assay: immunoblot of substrate acetylation in MCF-7 cells; format: cell-based, human; conditions: SP-2-225 10 μmol/L, SAHA and SP-1–161 1 μmol/L, Western blot
MCF-7 cells = assay: aggresome formation and immunostaining; format: cell-based, human; conditions: MCF-7, 24 hours; SP-2-225 10 μmol/L, MG-132 5 μmol/L
[2] = cited from earlier work
bladder cancer = conditions: cited from earlier work

## O=C(CCCCCCC(=O)Nc1ccccc1)NO [SAHA, suberoylanilide hydroxamic acid]
[1]
  acetylation of histone H3: increased the acetylation of α-tubulin and histone H3
  acetylation of α-tubulin: increased the acetylation of α-tubulin

## CC(C)C[C@@H](C=O)NC(=O)[C@H](CC(C)C)NC(=O)[C@H](CC(C)C)NC(=O)OCc1ccccc1 [MG-132] (Cbz-Leu-Leu-Leu-aldehyde)
MCF-7 cells
  aggresome formation: significant aggresome formation

## Cc1[nH]c2ccccc2c1CCNCc1ccc(/C=C/C(=O)NO)cc1 [LBH589]
[2]
  direct cytotoxic effect: direct cytotoxic effect even at nanomolar concentrations

## O=C(CCCCCCC(=O)Nc1ccc([C@H]2O[C@@H](CSc3nc(-c4ccccc4)c(-c4ccccc4)o3)C[C@@H](c3ccc(CO)cc3)O2)cc1)NO [Tubacin]
Bladder cancer
  radiosensitization effect: demonstrated radiosensitization effect
